Key:
Experiment in all cases: relative viability (nuclei count vs DMSO), 5 days (fraction); higher = more cells survive
Daporinad + Olaparib = compound: O=C(/C=C/c1cccnc1)NCCCCC1CCN(C(=O)c2ccccc2)CC1 [Daporinad] + O=C(c1cc(Cc2n[nH]c(=O)c3ccccc23)ccc1F)N1CCN(C(=O)C2CC2)CC1 [Olaparib] (partner 8 µM)
Summary of the method: (§1)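 Lung cancer cell lines, seeded in 1536-well plates, were treated the following day by pin tool with a single drug or with five library-drug doses (not always all listed) in √10 steps on top of a fixed anchor-drug dose. Cells were fixed and nuclei stained in one step after 5 days, and nuclei were counted. Relative viability is the nuclei count for treated wells divided by that for vehicle wells, reported as medians of duplicate plates.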

Daporinad + Tozasertib = compound: O=C(/C=C/c1cccnc1)NCCCCC1CCN(C(=O)c2ccccc2)CC1 [Daporinad] + Cc1cc(Nc2cc(N3CCN(C)CC3)nc(Sc3ccc(NC(=O)C4CC4)cc3)n2)n[nH]1 [Tozasertib] (partner 0.1 µM)
Summary of the method: as §1

R406 + Pictilisib = compound: COc1cc(Nc2ncc(F)c(Nc3ccc4c(n3)NC(=O)C(C)(C)O4)n2)cc(OC)c1OC [R406] + CS(=O)(=O)N1CCN(Cc2cc3nc(-c4cccc5[nH]ncc45)nc(N4CCOCC4)c3s2)CC1 [Pictilisib] (partner 1 µM)
Summary of the method: as §1

R406 + Foretinib = compound: COc1cc(Nc2ncc(F)c(Nc3ccc4c(n3)NC(=O)C(C)(C)O4)n2)cc(OC)c1OC [R406] + COc1cc2c(Oc3ccc(NC(=O)C4(C(=O)Nc5ccc(F)cc5)CC4)cc3F)ccnc2cc1OCCCN1CCOCC1 [Foretinib] (partner 0.25 µM)
Summary of the method: as §1

Cell Line	relative viability (Daporinad + Olaparib; first compound 0.0005 µM)	relative viability (Daporinad + Olaparib; first compound 0.001581 µM)	relative viability (Daporinad + Olaparib; first compound 0.005 µM)	relative viability (Daporinad + Olaparib; first compound 0.01581 µM)	relative viability (Daporinad + Tozasertib; first compound 0.0005 µM)	relative viability (Daporinad + Tozasertib; first compound 0.001581 µM)	relative viability (Daporinad + Tozasertib; first compound 0.005 µM)	relative viability (Daporinad + Tozasertib; first compound 0.01581 µM)	relative viability (R406 + Pictilisib; first compound 0.08 µM)	relative viability (R406 + Pictilisib; first compound 0.253 µM)	relative viability (R406 + Pictilisib; first compound 0.8 µM)	relative viability (R406 + Pictilisib; first compound 2.53 µM)	relative viability (R406 + Pictilisib; first compound 8 µM)	relative viability (R406 + Foretinib; first compound 0.08 µM)	relative viability (R406 + Foretinib; first compound 0.253 µM)	relative viability (R406 + Foretinib; first compound 0.8 µM)	relative viability (R406 + Foretinib; first compound 2.53 µM)	relative viability (R406 + Foretinib; first compound 8 µM)
NCI-H358	0.556	0.507	0.351	0.293	0.0969	0.0872	0.11	0.0799	0.336	0.323	0.319	0.272	0.228	0.75	0.795	0.886	0.335	0.156
NCI-H441	0.488	0.554	0.344	0.237	0.512	0.646	0.718	0.668	0.387	0.375	0.544	0.206	0.258	0.863	1.13	1.18	0.718	0.406
NCI-H460	0.399	0.375	0.184	0.143	0.43	0.386	0.6	0.56	0.33	0.426	0.38	0.224	0.259	0.887	1.13	1.16	1.07	0.781
NCI-H520	0.261	0.202	0.221	0.153	0.446	0.507	0.25	0.184	0.286	0.408	0.377	0.191	0.195	0.831	1	0.883	0.293	0.421
NCI-H596	0.647	0.562	0.542	0.441	0.879	0.929	1.1	0.65	0.368	0.362	0.392	0.316	0.252	0.926	1	0.957	0.726	0.162
NCI-H647	0.624	0.547	0.224	0.156	0.308	0.305	0.285	0.508	0.437	0.402	0.418	0.276	0.147	1.24	1.2	1.15	0.917	1.05
NCI-H650	0.358	0.462	0.346	0.285	0.691	0.853	0.738	0.835	0.89	1.04	0.993	0.613	0.604	0.968	1.17	1.03	0.914	0.864
NCI-H661	0.687	0.616	0.665	0.402	0.368	0.339	0.345	0.292	0.367	0.456	0.459	0.345	0.271	0.895	1.04	0.988	1	0.76
NCI-H727	0.571	0.682	0.623	0.539	0.737	0.608	0.555	0.62	0.386	0.508	0.354	0.175	0.252	0.954	0.841	0.851	0.752	0.697
NCI-H838	0.699	0.631	0.482	0.341	0.25	0.322	0.229	0.177	0.412	0.689	0.407	0.199	0.178	0.984	1.17	1.09	0.645	0.791
NCI-H1355	0.693	0.737	0.6	0.479	0.519	0.558	0.58	0.631	0.521	0.571	0.557	0.211	0.313	0.973	1.09	1.15	0.833	0.691
NCI-H1395	0.436	0.471	0.432	0.425	0.7	0.764	0.771	0.839	0.643	0.668	0.678	0.581	0.378	1.03	1.22	1.03	0.736	0.632
NCI-H1437	0.619	0.624	0.633	0.548	0.49	0.401	0.405	0.4	0.368	0.535	0.367	0.236	0.231	1.22	1.3	1.26	1.27	1.34
NCI-H1650	0.724	0.601	0.431	0.443	0.387	0.44	0.461	0.275	0.645	0.668	0.652	0.148	0.122	1.28	1.23	1	0.723	0.117
NCI-H1651	0.159	0.15	0.131	0.138	0.615	0.814	0.601	0.663	0.512	0.652	0.727	0.249	0.251	0.875	0.83	0.939	0.596	0.679
NCI-H1666	0.754	0.644	0.669	0.679	0.619	0.635	0.655	0.701	0.431	0.555	0.515	0.323	0.359	0.926	1.07	0.977	0.869	0.59
NCI-H1734	0.567	0.443	0.327	0.241	0.283	0.262	0.285	0.263	0.434	0.478	0.593	0.248	0.281	0.812	1.07	0.997	0.52	0.448
